Results on six compounds are retold here after US9763442B2, “In situ generation of peroxycarboxylic acids at alkaline pH, and methods of use thereof” (priority 2010, dated 2017).

Data set [1] is described as follows: Coupling of precipitated aqueous POOA by surfactants/hydrotropes. It is filed as physicochemical. The settings on record: 1000 ppm POOA in DI Water. The method, then: A variety of surfactants were analyzed for coupling and/or dispersion stabilizing of a peroxycarboxylic acid composition generated according to the methods of the invention. In particular, a peroxyoctanoic acid (POOA) composition in deionized water produced according to the invention was analyzed for coupling and/or dispersion stabilization using the dispersing agents set forth in Table 14A.
Given the very limited water solubility of POOA in its protonated form, acidification of the alkaline perhydrolysis solutions of the same causes immediate precipitation and rapid phase separation. In this example various surfactants and hydrotropes were evaluated for their ability to couple the POOA. In Table 14A it can be seen that the most efficient agents for coupling an already precipitated solution of POOA were samples I and II.

The nature of data set [2]: Dispersion stability of acidified POOA solutions with dispersing agents. It is filed as physicochemical. As to conditions: acidified POOA solution, 10,000 ppm H2SO4; oil sheen = fail. The method, then: The SLS, LAS and SOA dispersing agents were then further examined for efficacy in stabilizing and/or dispersing in 1% or lower sulfuric acid solutions. […] Solution 13 was made as 1 through 12 with the addition of 50 mL of 5 grain hard water to the aliquot of alkaline reaction solution followed by swirling with the surface aliquot and then additional 50 mL of 5 grain hard water, followed within about 5 seconds by 50 mL of 5 grain 2% sulfuric acid and swirled. Solution 14 was made by direct addition of 1% sulfuric acid (5 grain) without pre-dilution, but after moments of swirling with SLS aliquot. All concentrations are shown in ppm. […] The appearance of an oil sheen was regarded as a pass or fail.

For the compound `CCCCCCCCCCCCOS(=O)(=O)[O-].[Na+]` [I, Sodium Lauryl Sulfate], the “Amount of (B) Required for Coupling” value in data set [1] was 0.64 g/200 g aq POOA.

As to `CCCCCCCCS(=O)(=O)[O-].[Na+]` [VII, Sodium octanesulfonate], in data set [1], the “Amount of (B) Required for Coupling” value was 6.60 g/200 g aq POOA.

Turning to `CCCCC(CC)COC(=O)CC(C(=O)OCC(CC)CCCC)S(=O)(=O)[O-].[Na+]` (centres unmarked) [X, Sodium dioctyl Sulfosuccinates], in data set [1], the “Amount of (B) Required for Coupling” value is greater than 2.0 g/200 g aq POOA.

Take Alkyl Polyglycosides [VI]: the “Amount of (B) Required for Coupling” value in data set [1] was determined as 2.46 g/200 g aq POOA.

For the compound Linear Aryl Sulfonate [II], the “Amount of (B) Required for Coupling” value was 0.65 g/200 g aq POOA in data set [1] and 0.64 g/200 g aq POOA in data set [1] (listed as LAS). The “oil sheen at 23 h” value in data set [2] is given as “minimal surface oil”.

For Sodium Lauryl Ether Sulfate [III], in data set [1], the “Amount of (B) Required for Coupling” value is given as greater than 0.94 g/200 g aq POOA.
